# Measured values published in US5861476A, “Peptides and compounds that bind to the IL-1 receptor” (Affymax Technologies N.V., priority 1995, dated 1999).
# Where a SMILES comes first, the peptide text is derived from it. Where no end group is shown, it is not given here. [ ]: non-standard residue; d: D form. Bpa = N[C@@H](Cc1ccc(C(=O)c2ccccc2)cc1)C(=O)O; Pip = O=C(O)[C@@H]1CCCCN1; Aze = O=C(O)[C@@H]1CCN1; Sar = CNCC(=O)O
# Target: T1, IL-1RtI (Homo sapiens, UniProt P14778)
# T1 construct: made in house; host or cells: recombinant host cells (one form soluble from baculovirus transformed host cells; another PIG-tailed and cleaved from the cell surface)
# T1 sequence (P14778 18-336): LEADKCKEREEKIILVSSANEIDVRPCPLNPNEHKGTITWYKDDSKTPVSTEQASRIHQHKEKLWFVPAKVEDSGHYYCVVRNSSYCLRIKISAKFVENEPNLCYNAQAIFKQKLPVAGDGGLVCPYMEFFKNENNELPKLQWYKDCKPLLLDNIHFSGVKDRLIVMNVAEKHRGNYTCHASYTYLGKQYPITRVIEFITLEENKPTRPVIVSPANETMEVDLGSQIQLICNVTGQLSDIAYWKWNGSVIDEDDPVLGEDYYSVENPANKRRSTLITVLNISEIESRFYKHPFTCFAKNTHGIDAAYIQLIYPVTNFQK
# Assay: Inhibition of 125I-IL-1α binding to IL-1RtI (Example 3)
# Settings: not given
# Description: This example provides the results of experiments conducted to determine an approximate IC50 for certain peptides of the invention. IC50 as used herein refers to the concentration of a compound which will inhibit 50% of the binding between a receptor and its ligand, e.g. IL-1RtI and IL-1. Stock solutions of each peptide were prepared. The appropriate amount of the peptide was dissolved in DMSO, and then nineteen volumes of binding buffer (RPMI 1640, 1% BSA, 20 mM HEPES, pH 7.2-7.3, and 0.1% sodium azide) were added to yield a 1 mM peptide, 5% DMSO stock solution.
# One assay utilized a truncated IL-1RtI which had been immobilized on 96-well plates with an appropriate antibody, typically a non-blocking high affinity antibody. In other assays, cells expressing "full-length" IL-1RtI were used with results that yielded IC50 values about 5 to 10 fold lower than those determined using the truncated receptor. The cells were seeded onto Falcon 3072 96-well plates at about 10^5 cells per well, and the plates were incubated overnight at 37° C. in media containing serum. The following morning, the cells were checked to ensure that the cells were confluent and adhered to the bottom of the wells.
# According to either assay protocol, the plates were then washed three times with binding buffer, and then 50 μl of binding buffer and 25 μl of a peptide solution (either the stock solution or a dilution thereof; each stock was subjected to five three fold dilutions) were added to each well. Then 25 μl of binding buffer containing ^125 I-IL-1α (final concentration of 90 pM) were added to each well to begin the assay. Each assay was carried out in duplicate. The plates were then incubated for two hours at 4° C. For peptides having particularly high affinities, the assay was run in 24 well plates allowing for higher levels of ligand (possible total volume of 2.5 ml instead of 100 μl in the 96 well plate), thereby minimizing the potential for ligand depletion.
# After the two hour incubation, the wells were rinsed three times with ice cold PBS (a semi-automated cell harvesting device was used to conduct the rinse). The receptors or cells were then detached from the plates by adding 100 μl of 0.1N NaOH to each well and incubating the plates at room temperature for 20 minutes. After the 20 minute incubation, about 75 μl of the suspension was counted on a gamma counter, and the IC50 for each peptide was determined using computer assistance and the results of the gamma counting.
row,Compound,IC50
1,C[C@@H](O)[C@H](NC(=O)[C@H](Cc1c[nH]c2ccccc12)NC(=O)[C@H](CCC(=O)O)NC(=O)[C@@H](N)Cc1ccccc1)C(=O)N1CCC[C@H]1C(=O)N[C@H](CC(N)=O)C(=O)N[C@@H](Cc1ccc(O)cc1)C(=O)N[C@@H](Cc1ccc(O)cc1)C(=O)N[C@@H](CCC(N)=O)C(=O)N1CC[C@H]1C(=O)N[C@@H](Cc1ccc(O)cc1)C(N)=O [FEWTPnYYQJY-NH2] (H-FEWTP[dN]YYQ[Aze]Y-NH2),< 0.5 µM
2,C[C@@H](O)[C@H](NC(=O)[C@H](Cc1c[nH]c2ccccc12)NC(=O)[C@H](CCC(=O)O)NC(=O)[C@@H](N)Cc1ccccc1)C(=O)N1CCC[C@H]1C(=O)N[C@H](CO)C(=O)N[C@@H](Cc1ccc(O)cc1)C(=O)N[C@@H](Cc1ccc(O)cc1)C(=O)N[C@@H](CCC(N)=O)C(=O)N1CC[C@H]1C(=O)N[C@@H](Cc1ccc(O)cc1)C(N)=O [FEWTPsYYQJY-NH2] (H-FEWTP[dS]YYQ[Aze]Y-NH2),< 0.5 µM
3,C[C@H](NC(=O)[C@H](CC(N)=O)NC(=O)[C@H](CO)NC(=O)[C@H](CCC(=O)O)NC(=O)[C@H](CCC(=O)O)NC(=O)[C@H](Cc1c[nH]c2ccccc12)NC(=O)[C@@H](NC(=O)[C@@H](N)Cc1ccccc1)[C@@H](C)O)C(=O)N[C@@H](Cc1ccc(O)cc1)C(=O)N[C@@H](Cc1ccc(O)cc1)C(=O)N[C@@H](Cc1c[nH]c2ccccc12)C(=O)N[C@@H](CCC(N)=O)C(=O)N1CC[C@H]1C(=O)N[C@@H](Cc1ccc(O)cc1)C(N)=O [FTWEESNAYYWQJY-NH2] (H-FTWEESNAYYWQ[Aze]Y-NH2),< 0.5 µM
4,CC(C)C[C@H](NC(=O)[C@@H]1CCCN1C(=O)[C@H](CC(C)C)NC(=O)[C@H](C)NC(=O)[C@H](Cc1ccc(O)cc1)NC(=O)[C@@H]1CCN1C(=O)[C@H](CCC(N)=O)NC(=O)[C@H](Cc1c[nH]c2ccccc12)NC(=O)[C@H](Cc1ccc(O)cc1)NC(=O)[C@H](Cc1ccc(O)cc1)NC(=O)[C@H](C)NC(=O)[C@H](CC(N)=O)NC(=O)[C@H](CO)NC(=O)[C@H](CCC(=O)O)NC(=O)[C@H](CCC(=O)O)NC(=O)[C@H](Cc1c[nH]c2ccccc12)NC(=O)[C@@H](NC(=O)[C@@H](N)Cc1ccccc1)[C@@H](C)O)C(=O)O [FTWEESNAYYWQJYALPL] (H-FTWEESNAYYWQ[Aze]YALPL-OH),< 0.5 µM
5,FEWTPGYWQPYALPL [FEWTPGYWQPYALPL],< 0.5 µM

# Same assay, conditions: inhibition of 125I-IL-1α binding to IL-1RtI; soluble peptide unless marked *
row,Compound,IC50
1,C[C@@H](O)[C@H](NC(=O)[C@H](Cc1c[nH]c2ccccc12)NC(=O)[C@H](CCC(=O)O)NC(=O)[C@@H](N)Cc1ccccc1)C(=O)N1CCC[C@H]1C(=O)NCC(=O)N[C@@H](Cc1ccc(O)cc1)C(=O)N[C@@H](Cc1ccc(O)cc1)C(=O)N[C@@H](CCC(N)=O)C(=O)N1CC[C@H]1C(=O)N[C@@H](Cc1ccc(C(=O)c2ccccc2)cc1)C(N)=O [FEWTPGYYQJ--Bpa--NH2] (H-FEWTPGYYQ[Aze][Bpa]-NH2),≤ 100 µM
2,C[C@@H](O)[C@H](NC(=O)[C@H](Cc1c[nH]c2ccccc12)NC(=O)[C@H](CCC(=O)O)NC(=O)[C@@H](N)Cc1ccccc1)C(=O)N1CCC[C@H]1C(=O)N[C@@H](CC(N)=O)C(=O)N[C@@H](Cc1ccc(O)cc1)C(=O)N[C@@H](Cc1c[nH]c2ccccc12)C(=O)N[C@@H](CCC(N)=O)C(=O)N1CC[C@H]1C(=O)N[C@@H](Cc1ccc(O)cc1)C(N)=O [FEWTPNYWQJY--NH2] (H-FEWTPNYWQ[Aze]Y-NH2),≤ 0.5 µM
3,C[C@@H](O)[C@H](NC(=O)[C@H](Cc1c[nH]c2ccccc12)NC(=O)[C@H](CCC(=O)O)NC(=O)[C@@H](N)Cc1ccccc1)C(=O)N1CCC[C@H]1C(=O)N(C)CC(=O)N[C@@H](Cc1c[nH]c2ccccc12)C(=O)N[C@@H](Cc1ccc(O)cc1)C(=O)N[C@@H](CCC(N)=O)C(=O)N1CC[C@H]1C(=O)N[C@@H](Cc1ccc(O)cc1)C(N)=O [FEWTPSarWYQJY--NH2] (H-FEWTP[Sar]WYQ[Aze]Y-NH2),≤ 0.5 µM
4,C[C@@H](O)[C@H](NC(=O)[C@H](Cc1c[nH]c2ccccc12)NC(=O)[C@H](CCC(=O)O)NC(=O)[C@@H](N)Cc1ccccc1)C(=O)N1CCCC[C@H]1C(=O)NCC(=O)N[C@@H](Cc1ccc(O)cc1)C(=O)N[C@@H](Cc1c[nH]c2ccccc12)C(=O)N[C@@H](CCC(N)=O)C(=O)N1CC[C@H]1C(=O)N[C@@H](Cc1ccc(O)cc1)C(N)=O [FEWTPecGYWQJY--NH2] (H-FEWT[Pip]GYWQ[Aze]Y-NH2),≤ 0.5 µM
5,CC(C)[C@@H](NC(=O)[C@@H]1CCCN1C(=O)[C@@H](NC(=O)[C@H](Cc1c[nH]c2ccccc12)NC(=O)[C@H](CCC(=O)O)NC(=O)[C@@H](N)Cc1ccccc1)[C@@H](C)O)C(=O)N[C@@H](Cc1ccc(O)cc1)C(=O)N[C@@H](Cc1c[nH]c2ccccc12)C(=O)N[C@@H](CCC(N)=O)C(=O)N1CC[C@H]1C(=O)N[C@@H](Cc1ccc(O)cc1)C(N)=O [FEWTPvYWQJY--NH2] (H-FEWTP[dV]YWQ[Aze]Y-NH2),≤ 0.5 µM
6,C[C@@H](O)[C@H](NC(=O)[C@H](Cc1c[nH]c2ccccc12)NC(=O)[C@H](CCC(=O)O)NC(=O)[C@@H](N)Cc1ccccc1)C(=O)N(C)CC(=O)NCC(=O)N[C@@H](Cc1ccc(O)cc1)C(=O)N[C@@H](Cc1c[nH]c2ccccc12)C(=O)N[C@@H](CCC(N)=O)C(=O)N1CC[C@H]1C(=O)N[C@@H](Cc1ccc(O)cc1)C(N)=O [FEWTSarGYWQJY--NH2] (H-FEWT[Sar]GYWQ[Aze]Y-NH2),≤ 0.5 µM
7,CC(C)[C@H](NC(=O)[C@@H](NC(=O)[C@H](Cc1c[nH]c2ccccc12)NC(=O)[C@H](CCC(=O)O)NC(=O)[C@@H](N)Cc1ccccc1)[C@@H](C)O)C(=O)N1CCC[C@H]1C(=O)N[C@@H](Cc1ccc(O)cc1)C(=O)N[C@@H](Cc1c[nH]c2ccccc12)C(=O)N[C@@H](CCC(N)=O)C(=O)N1CC[C@H]1C(=O)N[C@@H](Cc1ccc(O)cc1)C(N)=O [FEWTVPYWQJY--NH2] (H-FEWTVPYWQ[Aze]Y-NH2),≤ 100 µM
8,C[C@@H](O)[C@H](NC(=O)[C@H](Cc1c[nH]c2ccccc12)NC(=O)[C@H](CCC(=O)O)NC(=O)[C@@H](N)Cc1ccccc1)C(=O)N1CCC[C@@H]1C(=O)NCC(=O)N[C@@H](Cc1ccc(O)cc1)C(=O)N[C@@H](Cc1c[nH]c2ccccc12)C(=O)N[C@@H](CCC(N)=O)C(=O)N1CC[C@H]1C(=O)N[C@@H](Cc1ccc(O)cc1)C(N)=O [FEWTpGYWQJY--NH2] (H-FEWT[dP]GYWQ[Aze]Y-NH2),≤ 0.5 µM
9,CC(C)[C@H](NC(=O)[C@H](Cc1c[nH]c2ccccc12)NC(=O)[C@H](CCC(=O)O)NC(=O)[C@@H](N)Cc1ccccc1)C(=O)N1CCC[C@H]1C(=O)NCC(=O)N[C@@H](Cc1ccc(O)cc1)C(=O)N[C@@H](Cc1ccc(O)cc1)C(=O)N[C@@H](CCC(N)=O)C(=O)N1CC[C@H]1C(=O)N[C@@H](Cc1ccc(O)cc1)C(N)=O [FEWVPGYYQJY--NH2] (H-FEWVPGYYQ[Aze]Y-NH2),≤ 0.5 µM
10,C[C@@H](O)[C@H](NC(=O)[C@H](Cc1c[nH]c2ccccc12)NC(=O)[C@H](CCC(=O)O)NC(=O)[C@@H](N)Cc1ccc(O)cc1)C(=O)N1CCC[C@H]1C(=O)NCC(=O)N[C@@H](Cc1ccc(O)cc1)C(=O)N[C@@H](Cc1ccc(O)cc1)C(=O)N[C@@H](CCC(N)=O)C(=O)N1CC[C@H]1C(=O)N[C@@H](Cc1ccc(O)cc1)C(N)=O [YEWTPGYYQJY--NH2] (H-YEWTPGYYQ[Aze]Y-NH2),≤ 0.5 µM
11,AHLFWQPYSVQR [AHLFWQPYSVQR],≤ 100 µM
12,AHTWWQPYALPL [AHTWWQ PYALPL],≤ 100 µM
13,ARFWLQPYALPL [ARFWLQ PYALPL],≤ 100 µM
14,ASEWWQPYALPL [ASEWWQ PYALPL],≤ 100 µM
15,AWVQPYATPLDE [AWVQPYATPLDE],≤ 100 µM
16,DNSSWYDSFLL [DNSSWYDSFLL],≤ 100 µM
17,DNTAWYENFLL [DNTAWYENFLL],≤ 100 µM
18,DNTAWYESFLA [DNTAWYESFLA],≤ 100 µM
19,DSYWWQPYALPL [DSYWWQ PYALPL],≤ 100 µM
20,DWFQPYSIQSDE [DWFQPYSIQSDE],≤ 100 µM
21,DYVWEQPYALPL [DYVWEQ PYALPL],≤ 100 µM
22,DYVWQQPYALPL [DYVWQQ PYALPL],≤ 100 µM
23,EGWWVQPYALPL [EGWWVQ PYALPL],≤ 100 µM
24,EIMFWQPYALPL [EIMFWQ PYALPL],≤ 100 µM
25,ENTYSPNWADSMYWQPYALPL [ENTYSPNWADSM YWQPYALPL],≤ 0.5 µM
26,ESFWVQPYALPL [ESFWVQ PYALPL],> 100 µM
27,EWTPGYWQPY-NH2 [EWTPGYWQPY--NH2],≤ 100 µM
28,EWYQPYALGWAR [EWYQPYALGWAR],≤ 100 µM
29,FEWTPGYWQPY-NH2 [FEWTPGYWQPY--NH2],≤ 0.5 µM
30,FEWTPGYWQPYALPL [FEWTPGYWQPYALPL],≤ 0.5 µM
